Several values for one entry are separate records, joined by “and”; a condition that tells them apart may be missing. Identical values can stand only once. Toxic doses and inconclusive results are not listed. Non-standard residues stand in square brackets, D forms with d. Residues, ends and D or L forms follow the SMILES beside them. Ac5c = NC1(C(=O)O)CCCC1
Tested on: CD2F1 mice, L1210 leukemia ip, survival T/C
Experiment: NCI In Vivo Anticancer Drug Screen. Data for tumor model L1210 Leukemia (intraperitoneal) in CD2F1 (CDF1) mice
Details: higher = longer survival
Summary of the method: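 Vehicle-treated tumor-bearing mice served as controls (C) for compound-treated mice (T). Reported figure is T divided by C.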

[1] = endpoint: mean survival time, dose: 100.0 mg/kg/injection, schedule: Q01DX001 (ip), vehicle: saline with Tween-80
[2] = endpoint: mean survival time, dose: 100.0 mg/kg/injection, schedule: Q01DX001 (ip), vehicle: saline
[3] = endpoint: mean survival time, dose: 100.0 mg/kg/injection, schedule: Q01DX009 (ip), vehicle: saline with Tween-80
[4] = endpoint: mean survival time, dose: 100.0 mg/kg/injection, schedule: Q04DX003 (ip), vehicle: saline with Tween-80
[5] = endpoint: mean survival time, dose: 200.0 mg/kg/injection, schedule: Q01DX009 (ip), vehicle: saline with Tween-80
[6] = endpoint: mean survival time, dose: 200.0 mg/kg/injection, schedule: Q04DX003 (ip), vehicle: saline with Tween-80
[7] = endpoint: mean survival time, dose: 400.0 mg/kg/injection, schedule: Q04DX003 (ip), vehicle: saline with Tween-80
[8] = endpoint: mean survival time, dose: 400.0 mg/kg/injection, schedule: Q01DX009 (ip), vehicle: saline with Tween-80
[9] = endpoint: mean survival time, dose: 200.0 mg/kg/injection, schedule: Q01DX001 (ip), vehicle: saline
[10] = endpoint: mean survival time, dose: 25.0 mg/kg/injection, schedule: Q01DX009 (ip), vehicle: saline with Tween-80
[11] = endpoint: mean survival time, dose: 50.0 mg/kg/injection, schedule: Q01DX009 (ip), vehicle: saline with Tween-80

## CCOC(=O)c1cc(C[N+](C)(C)C)oc1C
endpoint: mean survival time, dose: 25.0 mg/kg/injection, schedule: Q01DX001 (ip), vehicle: saline
  T/C: 96 % of control
endpoint: mean survival time, dose: 50.0 mg/kg/injection, schedule: Q01DX001 (ip), vehicle: saline
  T/C: 102 % of control
[1]
  T/C: 106 % of control
[2]
  T/C: 98 % of control

## CCCCCn1c(C)cc(/C=C\c2ccc3cc(C)ccc3[n+]2C)c1C
endpoint: mean survival time, dose: 0.62 mg/kg/injection, schedule: Q01DX009 (ip), vehicle: Klucel (hydroxypropylcellulose) (HPC)
  T/C: 101 % of control
endpoint: mean survival time, dose: 0.63 mg/kg/injection, schedule: Q01DX009 (ip), vehicle: Klucel (hydroxypropylcellulose) (HPC)
  T/C: 106 % of control
endpoint: mean survival time, dose: 1.25 mg/kg/injection, schedule: Q01DX009 (ip), vehicle: Klucel (hydroxypropylcellulose) (HPC)
  T/C: 114 % of control and 107 % of control

## COc1ccc2c(NCCCCCCNc3c4ccccc4nc4cc(OC)ccc34)c3ccccc3nc2c1
endpoint: mean survival time, dose: 0.07 mg/kg/injection, schedule: Q01DX009 (ip), vehicle: other
  T/C: 102 % of control
endpoint: mean survival time, dose: 0.15 mg/kg/injection, schedule: Q01DX009 (ip), vehicle: other
  T/C: 102 % of control
endpoint: mean survival time, dose: 0.16 mg/kg/injection, schedule: Q01DX009 (ip), vehicle: lactic acid
  T/C: 124 % of control
endpoint: mean survival time, dose: 0.31 mg/kg/injection, schedule: Q01DX009 (ip), vehicle: lactic acid
  T/C: 110 % of control
endpoint: mean survival time, dose: 0.31 mg/kg/injection, schedule: Q01DX009 (ip), vehicle: other
  T/C: 105 % of control
endpoint: mean survival time, dose: 0.62 mg/kg/injection, schedule: Q01DX009 (ip), vehicle: lactic acid
  T/C: 113 % of control
endpoint: mean survival time, dose: 0.63 mg/kg/injection, schedule: Q01DX009 (ip), vehicle: other
  T/C: 100 % of control
endpoint: mean survival time, dose: 1.25 mg/kg/injection, schedule: Q01DX009 (ip), vehicle: lactic acid
  T/C: 121 % of control and 122 % of control
endpoint: mean survival time, dose: 1.25 mg/kg/injection, schedule: Q01DX009 (ip), vehicle: other
  T/C: 107 % of control
endpoint: mean survival time, dose: 2.5 mg/kg/injection, schedule: Q01DX009 (ip), vehicle: lactic acid
  T/C: 122 % of control
endpoint: mean survival time, dose: 5.0 mg/kg/injection, schedule: Q01DX009 (ip), vehicle: lactic acid
  T/C: 116 % of control
endpoint: mean survival time, dose: 10.0 mg/kg/injection, schedule: Q01DX009 (ip), vehicle: lactic acid
  T/C: 122 % of control

## NCC(=O)NC1(C(=O)O)CCCC1 (H-Gly-[Ac5c]-OH)
endpoint: mean survival time, dose: 62.5 mg/kg/injection, schedule: Q01DX001 (ip), vehicle: saline
  T/C: 87 % of control
endpoint: mean survival time, dose: 62.5 mg/kg/injection, schedule: Q04DX003 (ip), vehicle: saline
  T/C: 107 % of control
endpoint: mean survival time, dose: 125.0 mg/kg/injection, schedule: Q01DX001 (ip), vehicle: saline
  T/C: 91 % of control
endpoint: mean survival time, dose: 125.0 mg/kg/injection, schedule: Q04DX003 (ip), vehicle: saline
  T/C: 107 % of control
endpoint: mean survival time, dose: 250.0 mg/kg/injection, schedule: Q01DX001 (ip), vehicle: saline
  T/C: 112 % of control
endpoint: mean survival time, dose: 500.0 mg/kg/injection, schedule: Q04DX003 (ip), vehicle: saline
  T/C: 152 % of control

## NC(=S)NCc1ccccc1
[3]
  T/C: 89 % of control
[4]
  T/C: 105 % of control
[5]
  T/C: 91 % of control
[6]
  T/C: 101 % of control
[7]
  T/C: 112 % of control

## Cc1ccc2c(c1)Sc1ccc3ccccc3c1N2
[3]
  T/C: 95 % of control
endpoint: mean survival time, dose: 100.0 mg/kg/injection, schedule: Q04DX003 (ip), vehicle: Klucel (hydroxypropylcellulose) (HPC)
  T/C: 96 % of control
[5]
  T/C: 97 % of control
endpoint: mean survival time, dose: 200.0 mg/kg/injection, schedule: Q04DX003 (ip), vehicle: Klucel (hydroxypropylcellulose) (HPC)
  T/C: 95 % of control
[8]
  T/C: 97 % of control
endpoint: mean survival time, dose: 400.0 mg/kg/injection, schedule: Q04DX003 (ip), vehicle: Klucel (hydroxypropylcellulose) (HPC)
  T/C: 98 % of control

## O=C1NC(=NC2CCCCC2)C2(CCNCC2)N1c1ccccc1
endpoint: mean survival time, dose: 50.0 mg/kg/injection, schedule: Q01DX001 (ip), vehicle: saline with Tween-80
  T/C: 102 % of control
[1]
  T/C: 106 % of control
endpoint: mean survival time, dose: 200.0 mg/kg/injection, schedule: Q01DX001 (ip), vehicle: saline with Tween-80
  T/C: 104 % of control

## C1C2CC3CC3CC12 (configuration not stated)
[4]
  T/C: 93 % of control

## CC(=O)SCCNCCOCCC#N
[3]
  T/C: 97 % of control
endpoint: mean survival time, dose: 100.0 mg/kg/injection, schedule: Q04DX003 (ip), vehicle: saline
  T/C: 95 % of control
[5]
  T/C: 101 % of control
endpoint: mean survival time, dose: 200.0 mg/kg/injection, schedule: Q04DX003 (ip), vehicle: saline
  T/C: 101 % of control
[8]
  T/C: 95 % of control
endpoint: mean survival time, dose: 400.0 mg/kg/injection, schedule: Q04DX003 (ip), vehicle: saline
  T/C: 101 % of control

## O=C1c2ccccc2C(=O)c2c(NCCNCCO)ccc(O)c21
endpoint: mean survival time, dose: 1.25 mg/kg/injection, schedule: Q01DX009 (ip), vehicle: suspension in saline
  T/C: 100 % of control
endpoint: mean survival time, dose: 2.5 mg/kg/injection, schedule: Q01DX009 (ip), vehicle: suspension in saline
  T/C: 101 % of control and 112 % of control
endpoint: mean survival time, dose: 5.0 mg/kg/injection, schedule: Q01DX009 (ip), vehicle: suspension in saline
  T/C: 113 % of control and 103 % of control
endpoint: mean survival time, dose: 7.5 mg/kg/injection, schedule: Q01DX009 (ip), vehicle: saline
  T/C: 193 % of control
endpoint: mean survival time, dose: 10.0 mg/kg/injection, schedule: Q01DX009 (ip), vehicle: suspension in saline
  T/C: 118 % of control and 101 % of control
endpoint: mean survival time, dose: 15.0 mg/kg/injection, schedule: Q01DX009 (ip), vehicle: saline
  T/C: 151 % of control
endpoint: mean survival time, dose: 20.0 mg/kg/injection, schedule: Q01DX009 (ip), vehicle: suspension in saline
  T/C: 112 % of control
endpoint: mean survival time, dose: 40.0 mg/kg/injection, schedule: Q01DX009 (ip), vehicle: suspension in saline
  T/C: 156 % of control
endpoint: median survival time, dose: 5.0 mg/kg/injection, schedule: Q01DX009 (ip), vehicle: suspension in saline
  T/C: 123 % of control and 110 % of control
endpoint: median survival time, dose: 10.0 mg/kg/injection, schedule: Q01DX009 (ip), vehicle: suspension in saline
  T/C: 115 % of control
endpoint: median survival time, dose: 20.0 mg/kg/injection, schedule: Q01DX009 (ip), vehicle: suspension in saline
  T/C: 150 % of control
endpoint: median survival time, dose: 40.0 mg/kg/injection, schedule: Q01DX009 (ip), vehicle: suspension in saline
  T/C: 153 % of control and 155 % of control
endpoint: median survival time, dose: 80.0 mg/kg/injection, schedule: Q01DX009 (ip), vehicle: suspension in saline
  T/C: 158 % of control and 183 % of control

## NC/C(=N\O)c1ccc(Cl)cc1
[2]
  T/C: 97 % of control
[9]
  T/C: 103 % of control

## CNC(=O)Nc1cc(C)ccc1OC
endpoint: mean survival time, dose: 50.0 mg/kg/injection, schedule: Q01DX009 (ip), vehicle: saline
  T/C: 106 % of control
endpoint: mean survival time, dose: 100.0 mg/kg/injection, schedule: Q01DX009 (ip), vehicle: saline
  T/C: 101 % of control
endpoint: mean survival time, dose: 200.0 mg/kg/injection, schedule: Q01DX009 (ip), vehicle: saline
  T/C: 107 % of control

## CCCCCCC(C(=O)OCC)P(=O)(OCC)OCC (configuration not stated)
endpoint: mean survival time, dose: 18.75 mg/kg/injection, schedule: Q01DX009 (ip), vehicle: saline with Tween-80
  T/C: 98 % of control
endpoint: mean survival time, dose: 37.5 mg/kg/injection, schedule: Q01DX009 (ip), vehicle: saline with Tween-80
  T/C: 96 % of control
endpoint: mean survival time, dose: 75.0 mg/kg/injection, schedule: Q01DX009 (ip), vehicle: saline with Tween-80
  T/C: 96 % of control
endpoint: mean survival time, dose: 75.0 mg/kg/injection, schedule: Q04DX003 (ip), vehicle: saline with Tween-80
  T/C: 95 % of control

## N#CC1CCCC1=O (configuration not stated)
endpoint: mean survival time, dose: 5.0 mg/kg/injection, schedule: Q04DX003 (ip), vehicle: saline
  T/C: 101 % of control
endpoint: mean survival time, dose: 10.0 mg/kg/injection, schedule: Q04DX003 (ip), vehicle: saline
  T/C: 101 % of control
endpoint: mean survival time, dose: 20.0 mg/kg/injection, schedule: Q04DX003 (ip), vehicle: saline
  T/C: 106 % of control

## O=C1CC2OCCC3CN4CCC56c7ccccc7N1C5C2C3CC46 (configuration not stated)
endpoint: mean survival time, dose: 75.0 mg/kg/injection, schedule: Q01DX001 (ip), vehicle: saline
  T/C: 106 % of control
endpoint: mean survival time, dose: 150.0 mg/kg/injection, schedule: Q01DX001 (ip), vehicle: saline
  T/C: 101 % of control

## CC1CC(O)C(N)C(O)C1 (configuration not stated)
[2]
  T/C: 103 % of control
[9]
  T/C: 98 % of control
endpoint: mean survival time, dose: 400.0 mg/kg/injection, schedule: Q01DX001 (ip), vehicle: saline
  T/C: 98 % of control

## CCN(C(=O)Nc1cccc2ccccc12)c1ccccc1
[4]
  T/C: 104 % of control
[6]
  T/C: 101 % of control
[7]
  T/C: 109 % of control

## CCOC(=O)C1(C#N)C(=O)CSC1=Nc1ccccc1Cl (configuration not stated)
[10]
  T/C: 90 % of control
[11]
  T/C: 91 % of control
[3]
  T/C: 86 % of control
[8]
  T/C: 86 % of control

## Cc1cccc(OCC2=NCCN2)c1C
endpoint: mean survival time, dose: 6.25 mg/kg/injection, schedule: Q04DX002 (ip), vehicle: saline with Tween-80
  T/C: 102 % of control
endpoint: mean survival time, dose: 12.5 mg/kg/injection, schedule: Q04DX002 (ip), vehicle: saline with Tween-80
  T/C: 109 % of control
endpoint: mean survival time, dose: 25.0 mg/kg/injection, schedule: Q04DX002 (ip), vehicle: saline with Tween-80
  T/C: 97 % of control

## Cc1ccc(S(=O)(=O)C2C=CC=CC=C2)cc1
[10]
  T/C: 98 % of control
[11]
  T/C: 98 % of control
[3]
  T/C: 94 % of control

## Cc1c(C(=O)O)cc([N+](=O)[O-])cc1[N+](=O)[O-]
[3]
  T/C: 102 % of control
[5]
  T/C: 100 % of control
[8]
  T/C: 96 % of control

Source: PubChem BioAssay AID256 (DTP/NCI, 2004)
